The source made the active and inactive calls.
Experiments:
Protein RecA = molecular target: T1, Protein RecA (Mycobacterium tuberculosis, UniProt P9WHJ3); test: Fluorescence Cell-Free Homogeneous Dose Retest to Identify Inhibitors of RecA-Intein Splicing Activity. [Related pubchem assays (depositor defined):AID2097, AID2223, AID489010, AID492950]; format: functional
T1 sequence (P9WHJ3 whole entry): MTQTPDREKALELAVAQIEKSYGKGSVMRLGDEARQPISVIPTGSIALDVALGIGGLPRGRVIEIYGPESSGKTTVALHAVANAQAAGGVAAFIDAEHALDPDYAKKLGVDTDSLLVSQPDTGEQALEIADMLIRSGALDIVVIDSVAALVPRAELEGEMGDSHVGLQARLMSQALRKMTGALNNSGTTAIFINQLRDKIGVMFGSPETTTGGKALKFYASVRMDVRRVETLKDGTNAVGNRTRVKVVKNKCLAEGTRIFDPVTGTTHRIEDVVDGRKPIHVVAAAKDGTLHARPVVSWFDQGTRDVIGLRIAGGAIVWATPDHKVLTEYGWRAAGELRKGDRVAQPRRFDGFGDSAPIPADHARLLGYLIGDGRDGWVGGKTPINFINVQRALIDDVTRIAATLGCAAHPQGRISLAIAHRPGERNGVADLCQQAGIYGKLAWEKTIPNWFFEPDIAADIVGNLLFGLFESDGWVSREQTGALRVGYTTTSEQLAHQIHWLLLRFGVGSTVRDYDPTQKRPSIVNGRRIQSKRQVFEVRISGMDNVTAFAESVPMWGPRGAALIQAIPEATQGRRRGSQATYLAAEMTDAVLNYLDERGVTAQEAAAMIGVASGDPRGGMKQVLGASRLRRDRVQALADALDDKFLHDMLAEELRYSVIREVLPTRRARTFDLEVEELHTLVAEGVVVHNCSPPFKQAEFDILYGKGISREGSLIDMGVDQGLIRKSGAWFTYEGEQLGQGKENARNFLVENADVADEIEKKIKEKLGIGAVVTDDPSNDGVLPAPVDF

HEK293 [1] = test: cells; format: functional, cell-based; conditions: Homo sapiens
HEK293 [2] = test: inhibition of NOD1-driven NF-kB reporter – cell-based, luminescence, uHTS, primary screen (AID 1578); format: functional; conditions: Homo sapiens
[3] = molecular target: T2, Replicative DNA helicase DnaB (Mycobacterium tuberculosis, UniProt P9WMR3); test: DnaB intein splicing inhibitors, dose response, biochemical, cell-free fluorescence (AID 449749); format: functional
T2 sequence (P9WMR3 whole entry): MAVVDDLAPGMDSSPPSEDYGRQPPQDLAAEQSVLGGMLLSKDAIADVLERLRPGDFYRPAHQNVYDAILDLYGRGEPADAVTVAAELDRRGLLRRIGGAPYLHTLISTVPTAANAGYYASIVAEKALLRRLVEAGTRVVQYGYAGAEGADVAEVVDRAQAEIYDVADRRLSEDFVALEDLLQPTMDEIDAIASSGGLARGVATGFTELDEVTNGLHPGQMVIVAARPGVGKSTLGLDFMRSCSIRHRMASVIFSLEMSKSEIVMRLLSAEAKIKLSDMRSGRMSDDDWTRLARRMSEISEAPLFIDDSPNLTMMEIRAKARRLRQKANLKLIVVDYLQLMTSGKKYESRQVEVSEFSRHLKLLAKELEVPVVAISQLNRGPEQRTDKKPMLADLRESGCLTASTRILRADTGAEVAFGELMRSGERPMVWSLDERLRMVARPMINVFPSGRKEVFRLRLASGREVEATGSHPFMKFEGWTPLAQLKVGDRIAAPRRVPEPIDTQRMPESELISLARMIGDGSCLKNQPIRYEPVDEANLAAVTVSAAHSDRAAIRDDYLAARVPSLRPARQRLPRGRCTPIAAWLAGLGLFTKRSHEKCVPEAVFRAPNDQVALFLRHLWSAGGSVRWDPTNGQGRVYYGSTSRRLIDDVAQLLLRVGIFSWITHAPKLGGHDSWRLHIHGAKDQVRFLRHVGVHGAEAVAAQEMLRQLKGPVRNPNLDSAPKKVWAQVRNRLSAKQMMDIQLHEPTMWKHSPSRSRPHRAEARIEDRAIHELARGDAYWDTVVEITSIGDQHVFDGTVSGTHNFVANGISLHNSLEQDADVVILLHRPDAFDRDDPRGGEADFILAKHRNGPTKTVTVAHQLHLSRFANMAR

HEK293 [4] = test: cells; format: functional, cell-based; conditions: Homo sapiens; remark: listed apart in the source
[5] = molecular target: T3, Microphthalmia-associated transcription factor (Homo sapiens, UniProt O75030); test: reducers of TRPM1 reporter luminescence, concentration series – cell-based, SK-MEL-5, cherry-picked, set 3, MITF inhibitor project, dose response (AID 493073); format: functional;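 note: SK-MEL-5 melanoma cells with luciferase driven by the MITF target TRPM1 promoter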
T3 sequence (O75030 whole entry): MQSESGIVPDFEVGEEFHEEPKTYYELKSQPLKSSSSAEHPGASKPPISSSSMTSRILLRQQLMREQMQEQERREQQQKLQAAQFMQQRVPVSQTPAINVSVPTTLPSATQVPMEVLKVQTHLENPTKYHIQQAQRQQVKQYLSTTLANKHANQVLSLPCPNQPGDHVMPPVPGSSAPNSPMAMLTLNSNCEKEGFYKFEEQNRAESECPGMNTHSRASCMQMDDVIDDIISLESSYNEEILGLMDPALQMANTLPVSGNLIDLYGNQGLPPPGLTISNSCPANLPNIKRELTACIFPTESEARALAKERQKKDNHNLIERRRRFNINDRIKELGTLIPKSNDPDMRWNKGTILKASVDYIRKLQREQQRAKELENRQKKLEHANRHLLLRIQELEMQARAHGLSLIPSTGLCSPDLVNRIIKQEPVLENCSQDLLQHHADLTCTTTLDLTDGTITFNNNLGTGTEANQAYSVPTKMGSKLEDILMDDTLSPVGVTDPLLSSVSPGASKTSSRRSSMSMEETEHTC

HEK293 [6] = test: NOD2 signaling inhibitors in MDP-stimulated cells, cell-based, uHTS, luminescence (AID 2001); format: functional; conditions: Homo sapiens
HEK293 [7] = test: cells; format: functional, cell-based; conditions: Homo sapiens; remark: listed apart in the source
[8] = molecular target: Nucleotide-binding oligomerization domain-containing protein 2 (Homo sapiens, UniProt Q9HC29); test: inhibition of NOD2-driven NF-kB reporter – cell-based, luminescence, uHTS, HEK293 (AID 1566); format: functional
[9] = molecular target: T4, Runt-related transcription factor 1/Core-binding factor subunit beta (Homo sapiens, UniProt Q01196+Q13951); test: Runt domain/CBFb-SMMHC interaction disruptors – biochemical, TR-FRET (AID 1438); format: protein assay
[10] = molecular target: Peroxisome proliferator-activated receptor gamma/Nuclear receptor coactivator 3 (Homo sapiens, UniProt P37231); test: (§1) TR-FRET dose response biochemical High Throughput Screening assay for agonists of the steroid receptor coactivator 3 (SRC-3) recruitment by the peroxisome proliferator-activated receptor gamma (PPAR gamma): non-selective agonists. [Related pubchem assays: 1301 (Confirmation screen.), 1048 (Primary screen.)]; format: functional
[11] = molecular target: Peroxisome proliferator-activated receptor gamma/Nuclear receptor coactivator 1 (Homo sapiens, UniProt P37231); test: as §1, with “1 (SRC-1)” for “3 (SRC-3)”, “assays (depositor defined):AID1300, AID1808, AID504735, AID631]” for “assays: 1301 (Confirmation screen.), 1048 (Primary screen.)]”; format: protein assay
[12] = molecular target: Peroxisome proliferator-activated receptor gamma/Nuclear receptor coactivator 2 (Homo sapiens, UniProt P37231); test: TR-FRET dose response biochemical High Throughput Screening assay for agonists of the steroid receptor coactivator 2 (SRC-2) recruitment by the peroxisome proliferator-activated receptor gamma (PPAR gamma): non-selective agonists. [Related pubchem assays: 1297, 1032 ]; format: functional
[13] = molecular target: T4, Runt-related transcription factor 1/Core-binding factor subunit beta; test: disruptors of Runt domain/CBFb-SMMHC interaction – biochemical, FRET, Cerulean-Runt, Venus-CBFb-SMMHC, uHTS, […] (AID 1434); format: protein assay
[14] = molecular target: DNA dC->dU-editing enzyme APOBEC-3G (Homo sapiens, UniProt Q9HC16); format: functional;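 note: Dose-response counterscreen measuring inhibition of APOBEC3G DNA deaminase activity, run while confirming APOBEC3A inhibitors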
[15] = molecular target: DNA dC->dU-editing enzyme APOBEC-3A (Homo sapiens, UniProt P31941); test: Dose Response confirmation of small molecule APOBEC3A DNA Deaminase Inhibitors via a fluorescence-based single-stranded DNA deaminase assay. [Related pubchem assays (depositor defined):AID493011, AID493024]; format: functional
cells = format: functional
[16] = Vero E6 cell cytotoxicity, dose response, cytotoxicity control for non-replicating M. tuberculosis project, secondary assay (AID 492998); format: functional, VeroE6; conditions: Vero C1008
[17] = microbe, parasite or virus in culture; format: functional; conditions: Mycobacterium tuberculosis
[18] = THP-1 cell cytotoxicity, dose response, cytotoxicity control for non-replicating M. tuberculosis project (AID 489025); format: functional
Nonstructural protein 1 = Nonstructural protein 1 (Influenza A virus, UniProt Q194T2); format: functional, Influenza A virus (A/California/07/2009(H1N1))
[19] = molecular target: T5, Mannose-6-phosphate isomerase (Homo sapiens, UniProt P34949); test: MPI enzyme activity inhibition – biochemical, fluorescence intensity, coupled assay, primary screen (AID 1209)
T5 sequence (P34949 whole entry): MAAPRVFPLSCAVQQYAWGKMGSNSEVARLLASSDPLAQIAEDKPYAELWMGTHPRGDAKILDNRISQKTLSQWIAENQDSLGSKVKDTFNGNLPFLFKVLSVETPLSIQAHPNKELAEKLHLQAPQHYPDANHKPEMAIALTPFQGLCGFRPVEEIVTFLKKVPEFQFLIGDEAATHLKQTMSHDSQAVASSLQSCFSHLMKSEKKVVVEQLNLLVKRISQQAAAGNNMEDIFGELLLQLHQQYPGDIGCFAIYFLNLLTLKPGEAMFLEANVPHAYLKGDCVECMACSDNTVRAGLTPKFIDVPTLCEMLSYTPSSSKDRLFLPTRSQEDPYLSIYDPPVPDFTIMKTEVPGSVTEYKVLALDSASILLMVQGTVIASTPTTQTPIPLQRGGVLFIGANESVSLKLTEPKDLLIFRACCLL

[20] = molecular target: Glucose-6-phosphate 1-dehydrogenase (Homo sapiens, UniProt P11413); test: inhibition of Homo sapiens G6PD, dose series – biochemical, fluorescence, selectivity assay for P. falciparum G6PD inhibitor project, dose response (AID 504792); format: functional
[21] = molecular target: T5, Mannose-6-phosphate isomerase; test: MPI inhibition at elevated mannose 6-phosphate – biochemical, fluorescence intensity, high mannose 6-phosphate, primary screen (AID 1220)

DNA dC->dU-editing enzyme APOBEC-3G, sequence (Q9HC16 whole entry): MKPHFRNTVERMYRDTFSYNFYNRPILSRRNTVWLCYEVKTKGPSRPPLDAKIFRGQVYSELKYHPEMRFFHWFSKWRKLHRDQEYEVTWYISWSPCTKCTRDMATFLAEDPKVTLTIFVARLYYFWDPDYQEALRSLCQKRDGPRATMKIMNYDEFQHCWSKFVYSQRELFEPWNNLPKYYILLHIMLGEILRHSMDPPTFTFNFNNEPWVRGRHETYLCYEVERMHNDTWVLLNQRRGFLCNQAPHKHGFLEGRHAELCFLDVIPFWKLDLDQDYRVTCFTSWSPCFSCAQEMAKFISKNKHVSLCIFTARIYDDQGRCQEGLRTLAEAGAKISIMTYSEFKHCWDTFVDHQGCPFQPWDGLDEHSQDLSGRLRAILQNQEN
Peroxisome proliferator-activated receptor gamma/Nuclear receptor coactivator 1, sequence (P37231 whole entry): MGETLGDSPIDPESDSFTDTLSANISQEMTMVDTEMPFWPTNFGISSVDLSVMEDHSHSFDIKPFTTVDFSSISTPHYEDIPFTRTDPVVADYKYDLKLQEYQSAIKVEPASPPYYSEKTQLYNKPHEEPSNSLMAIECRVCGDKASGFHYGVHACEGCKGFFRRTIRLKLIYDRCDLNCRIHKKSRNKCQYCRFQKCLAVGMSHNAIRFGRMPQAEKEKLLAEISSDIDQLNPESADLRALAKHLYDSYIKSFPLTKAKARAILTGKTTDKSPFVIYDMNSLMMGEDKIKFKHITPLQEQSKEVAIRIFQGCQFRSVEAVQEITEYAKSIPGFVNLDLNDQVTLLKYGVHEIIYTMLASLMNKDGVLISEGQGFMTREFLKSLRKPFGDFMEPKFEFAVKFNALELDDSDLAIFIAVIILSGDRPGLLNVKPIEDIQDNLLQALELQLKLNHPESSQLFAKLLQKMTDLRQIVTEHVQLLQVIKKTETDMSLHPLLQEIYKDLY
Peroxisome proliferator-activated receptor gamma/Nuclear receptor coactivator 1, sequence (Q15788 whole entry, further chain): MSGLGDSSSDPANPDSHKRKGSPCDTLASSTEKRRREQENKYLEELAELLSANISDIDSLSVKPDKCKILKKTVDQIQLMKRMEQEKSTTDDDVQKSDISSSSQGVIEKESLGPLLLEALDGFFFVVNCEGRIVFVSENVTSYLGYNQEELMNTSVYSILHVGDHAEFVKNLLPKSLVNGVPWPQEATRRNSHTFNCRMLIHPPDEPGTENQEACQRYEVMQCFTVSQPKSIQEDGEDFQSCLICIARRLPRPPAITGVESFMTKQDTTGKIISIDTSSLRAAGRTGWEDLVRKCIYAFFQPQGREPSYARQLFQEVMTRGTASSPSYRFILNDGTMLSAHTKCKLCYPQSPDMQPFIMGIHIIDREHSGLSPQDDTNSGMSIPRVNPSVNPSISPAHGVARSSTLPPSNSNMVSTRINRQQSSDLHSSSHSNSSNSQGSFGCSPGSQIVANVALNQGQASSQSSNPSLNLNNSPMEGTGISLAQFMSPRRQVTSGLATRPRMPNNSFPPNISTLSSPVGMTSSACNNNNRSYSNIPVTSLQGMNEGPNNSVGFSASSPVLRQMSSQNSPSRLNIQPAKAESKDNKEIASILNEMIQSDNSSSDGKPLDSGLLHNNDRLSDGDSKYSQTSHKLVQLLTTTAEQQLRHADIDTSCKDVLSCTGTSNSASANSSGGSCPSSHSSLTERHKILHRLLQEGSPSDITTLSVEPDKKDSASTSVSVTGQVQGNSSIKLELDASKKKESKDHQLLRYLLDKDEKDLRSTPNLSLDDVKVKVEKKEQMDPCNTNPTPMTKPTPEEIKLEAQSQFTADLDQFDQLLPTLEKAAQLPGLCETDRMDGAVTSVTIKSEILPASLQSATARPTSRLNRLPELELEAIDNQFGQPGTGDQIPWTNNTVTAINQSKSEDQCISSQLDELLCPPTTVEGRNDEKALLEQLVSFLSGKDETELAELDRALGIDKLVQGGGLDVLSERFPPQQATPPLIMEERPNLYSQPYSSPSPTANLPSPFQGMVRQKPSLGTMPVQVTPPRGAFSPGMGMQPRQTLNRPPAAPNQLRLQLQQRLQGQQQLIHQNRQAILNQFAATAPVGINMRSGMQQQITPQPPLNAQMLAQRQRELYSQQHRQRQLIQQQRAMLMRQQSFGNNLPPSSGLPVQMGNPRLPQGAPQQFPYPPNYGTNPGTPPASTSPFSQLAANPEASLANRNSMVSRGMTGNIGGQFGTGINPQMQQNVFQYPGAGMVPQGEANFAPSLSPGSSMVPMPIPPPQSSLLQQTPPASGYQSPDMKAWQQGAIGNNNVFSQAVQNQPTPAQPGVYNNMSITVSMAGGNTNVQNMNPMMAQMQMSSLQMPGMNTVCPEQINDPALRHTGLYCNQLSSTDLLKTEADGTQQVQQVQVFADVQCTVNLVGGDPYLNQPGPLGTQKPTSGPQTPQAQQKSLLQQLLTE
Peroxisome proliferator-activated receptor gamma/Nuclear receptor coactivator 3, sequence (P37231 whole entry): as the sequence (P37231 whole entry) above
Peroxisome proliferator-activated receptor gamma/Nuclear receptor coactivator 3, sequence (Q9Y6Q9 whole entry, further chain): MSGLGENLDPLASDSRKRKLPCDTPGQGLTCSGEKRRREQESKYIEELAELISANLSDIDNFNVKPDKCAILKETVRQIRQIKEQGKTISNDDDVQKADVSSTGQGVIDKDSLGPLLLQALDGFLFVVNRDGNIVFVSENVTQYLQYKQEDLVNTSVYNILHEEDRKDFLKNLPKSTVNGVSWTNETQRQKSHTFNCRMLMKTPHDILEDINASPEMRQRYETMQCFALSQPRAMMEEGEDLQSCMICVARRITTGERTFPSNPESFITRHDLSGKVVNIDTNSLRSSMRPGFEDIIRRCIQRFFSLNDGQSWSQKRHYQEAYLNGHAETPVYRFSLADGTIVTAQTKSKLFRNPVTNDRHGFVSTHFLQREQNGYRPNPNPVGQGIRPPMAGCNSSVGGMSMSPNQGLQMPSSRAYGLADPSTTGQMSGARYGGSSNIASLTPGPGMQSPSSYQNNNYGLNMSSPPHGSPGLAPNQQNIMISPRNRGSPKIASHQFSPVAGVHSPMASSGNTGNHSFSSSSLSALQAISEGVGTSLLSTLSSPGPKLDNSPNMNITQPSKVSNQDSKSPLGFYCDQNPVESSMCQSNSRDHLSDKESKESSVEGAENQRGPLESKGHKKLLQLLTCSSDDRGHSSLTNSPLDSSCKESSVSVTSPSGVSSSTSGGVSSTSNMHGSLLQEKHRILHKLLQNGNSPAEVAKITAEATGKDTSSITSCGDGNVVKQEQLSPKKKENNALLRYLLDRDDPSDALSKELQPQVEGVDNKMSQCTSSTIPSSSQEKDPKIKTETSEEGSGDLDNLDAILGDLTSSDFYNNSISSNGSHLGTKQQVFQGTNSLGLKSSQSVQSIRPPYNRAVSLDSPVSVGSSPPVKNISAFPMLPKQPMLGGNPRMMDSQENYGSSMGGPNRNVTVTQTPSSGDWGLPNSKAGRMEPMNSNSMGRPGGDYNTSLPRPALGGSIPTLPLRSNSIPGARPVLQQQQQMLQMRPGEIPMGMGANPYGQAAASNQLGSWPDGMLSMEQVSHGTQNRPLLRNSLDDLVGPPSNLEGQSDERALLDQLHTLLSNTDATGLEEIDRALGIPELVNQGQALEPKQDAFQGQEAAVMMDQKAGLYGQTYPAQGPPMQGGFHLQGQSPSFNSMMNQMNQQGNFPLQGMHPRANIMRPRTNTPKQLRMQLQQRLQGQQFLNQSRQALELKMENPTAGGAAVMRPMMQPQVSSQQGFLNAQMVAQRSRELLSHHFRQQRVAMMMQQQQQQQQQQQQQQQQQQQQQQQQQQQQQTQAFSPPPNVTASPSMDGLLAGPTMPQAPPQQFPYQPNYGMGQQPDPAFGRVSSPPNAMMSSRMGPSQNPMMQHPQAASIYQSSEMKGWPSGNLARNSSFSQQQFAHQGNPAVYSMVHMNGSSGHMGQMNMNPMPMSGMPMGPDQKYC
T4 sequence (Q01196 whole entry, the tested form may be a part): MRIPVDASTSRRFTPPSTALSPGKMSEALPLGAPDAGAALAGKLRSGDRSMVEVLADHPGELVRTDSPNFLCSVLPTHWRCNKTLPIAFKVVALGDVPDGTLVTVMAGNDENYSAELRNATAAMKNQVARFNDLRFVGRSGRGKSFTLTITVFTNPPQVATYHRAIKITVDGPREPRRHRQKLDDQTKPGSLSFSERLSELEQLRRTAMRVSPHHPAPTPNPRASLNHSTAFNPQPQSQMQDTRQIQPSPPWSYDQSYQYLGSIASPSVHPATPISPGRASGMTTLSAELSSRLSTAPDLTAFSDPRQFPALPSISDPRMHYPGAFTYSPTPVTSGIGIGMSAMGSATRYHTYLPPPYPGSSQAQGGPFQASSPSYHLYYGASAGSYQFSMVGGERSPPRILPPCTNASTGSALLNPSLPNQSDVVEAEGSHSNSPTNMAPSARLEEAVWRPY
T4 sequence (Q13951 whole entry, the tested form may be a part): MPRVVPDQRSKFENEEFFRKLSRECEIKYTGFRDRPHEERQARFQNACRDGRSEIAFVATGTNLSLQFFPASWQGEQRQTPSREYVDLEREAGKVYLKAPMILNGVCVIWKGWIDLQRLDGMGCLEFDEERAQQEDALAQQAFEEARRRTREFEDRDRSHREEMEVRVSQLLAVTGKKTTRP

## O=C(CCl)N1N=C(c2ccco2)CC1c1cccs1 (centres undefined)
Protein RecA
  EC50: 2.16 µM (active)
HEK293 [1]
  IC50: 5.32 µM (active)
HEK293 [2]
  EC50: 7.24 µM (active)
[3]
  AC50: 92.5 µM (active)
HEK293 [4]
  IC50: > 20 µM (inactive)
[5]
  AC50: 7.84 µM (active)
HEK293 [6]
  IC50: 4.77 µM (active)
HEK293 [7]
  IC50: > 20 µM (inactive)
[8]
  EC50: 16.7 µM (active)

## Oc1ccc(/N=C/c2ccc(-c3cccs3)s2)cc1
[9]
  IC50: > 100 µM (inactive)
[10]
  EC50: 73 µM (not active)
[11]
  EC50: 8.81 µM (active)
[12]
  EC50: 12 µM (not active)
[13]
  IC50: 4.2 µM (active)

## COc1ccc(N(CC(=O)NCCSc2ccc(C)cc2)S(=O)(=O)c2ccccc2)c(OC)c1
[14]
  IC50: 9.82 µM (active)
[15]
  IC50: 10.9 µM (active)

## Cc1cccc[n+]1C1C(c2ccccc2)C(C#N)=C([C-](C#N)C#N)NC1(O)C1CC1 (centres undefined)
[10]
  EC50: > 79.4 µM (not active)
[11]
  EC50: > 79.4 µM (inactive)
[12]
  EC50: > 79.4 µM (not active)

## CCCOc1ccc(C2C(C(=O)OC)=CN(CCOC)C=C2C(=O)OC)cc1
[9]
  IC50: > 100 µM (inactive)
[13]
  IC50: 2.22 µM (active)

## FC(F)(Cl)c1nnc2ccc(Cl)nn12
cells
  IC50: 0.75 µM (active)
[16]
  CC50: 16.7 µM (active)
[17]
  CC50: 16.5 µM (active)
[18]
  CC50: 10.8 µM (active)

## Cc1cc2nc(-c3ccc(SCc4ccccc4C#N)nc3)[nH]c2cc1C
[10]
  EC50: > 79.4 µM (not active)
[11]
  EC50: > 79.4 µM (inactive)
[12]
  EC50: > 79.4 µM (not active)

## CCN1C(NCCCOC(C)C)=N[C@@H](CCc2ccccc2)[C@H](C(=O)NCCCOC(C)C)[C@H]1C
[14]
  IC50: 3.6 µM (active)
[15]
  IC50: 2.91 µM (active)

## C/[N+]([O-])=C\c1ccc2cccc(O)c2n1
Nonstructural protein 1
  IC50: 1.68 µM (active)
cells
  IC50: 11.6 µM (active)
[16]
  CC50: 15.6 µM (active)
[19]
  IC50: 16.4 µM (active)
[20]
  IC50: > 80 µM (inactive)
[21]
  IC50: 11.8 µM (active)
[18]
  CC50: 35 µM (active)

## Cn1c(-[n+]2c(-c3ccccc3)cc(-c3ccccc3)cc2-c2ccccc2)nc2cc([N+](=O)[O-])ccc21
[14]
  IC50: 22.7 µM (active)
[15]
  IC50: 19.1 µM (active)

From ChEMBL document CHEMBL1201862, “PubChem BioAssay data set” (2004)
